Earlier results in US20260048008A1, “ORGANOGELS FOR SUSTAINED DRUG DELIVERY, METHODS OF PREPARATION AND USE THEREOF” (OCULAR THERAPEUTIX, INC., priority 2022, published 2026).

- solubility in water: practically insoluble in water
Structure (SMILES): CC(C)OC(=O)CCC/C=C\C[C@@H]1[C@@H](/C=C/[C@@H](O)COc2cccc(C(F)(F)F)c2)[C@H](O)C[C@@H]1O [Travoprost]
